# Results taken from patent US20050106592A1, “Method for identifying a pharmacologically active substance” (priority 2002, published 2005).
# What was measured:
# [1] = biological target: T1, ACE from pig kidney (EC 3.4.15.1) (Sus scrofa, UniProt F1RRW5); format: biochemical; conditions: relative to Captopril
# T1 construct: angiotensin-converting-enzyme derived from pig kidney; purchased Sigma; host or cells: pig kidney (tissue-derived enzyme)
# T1 sequence (F1RRW5 34-1309): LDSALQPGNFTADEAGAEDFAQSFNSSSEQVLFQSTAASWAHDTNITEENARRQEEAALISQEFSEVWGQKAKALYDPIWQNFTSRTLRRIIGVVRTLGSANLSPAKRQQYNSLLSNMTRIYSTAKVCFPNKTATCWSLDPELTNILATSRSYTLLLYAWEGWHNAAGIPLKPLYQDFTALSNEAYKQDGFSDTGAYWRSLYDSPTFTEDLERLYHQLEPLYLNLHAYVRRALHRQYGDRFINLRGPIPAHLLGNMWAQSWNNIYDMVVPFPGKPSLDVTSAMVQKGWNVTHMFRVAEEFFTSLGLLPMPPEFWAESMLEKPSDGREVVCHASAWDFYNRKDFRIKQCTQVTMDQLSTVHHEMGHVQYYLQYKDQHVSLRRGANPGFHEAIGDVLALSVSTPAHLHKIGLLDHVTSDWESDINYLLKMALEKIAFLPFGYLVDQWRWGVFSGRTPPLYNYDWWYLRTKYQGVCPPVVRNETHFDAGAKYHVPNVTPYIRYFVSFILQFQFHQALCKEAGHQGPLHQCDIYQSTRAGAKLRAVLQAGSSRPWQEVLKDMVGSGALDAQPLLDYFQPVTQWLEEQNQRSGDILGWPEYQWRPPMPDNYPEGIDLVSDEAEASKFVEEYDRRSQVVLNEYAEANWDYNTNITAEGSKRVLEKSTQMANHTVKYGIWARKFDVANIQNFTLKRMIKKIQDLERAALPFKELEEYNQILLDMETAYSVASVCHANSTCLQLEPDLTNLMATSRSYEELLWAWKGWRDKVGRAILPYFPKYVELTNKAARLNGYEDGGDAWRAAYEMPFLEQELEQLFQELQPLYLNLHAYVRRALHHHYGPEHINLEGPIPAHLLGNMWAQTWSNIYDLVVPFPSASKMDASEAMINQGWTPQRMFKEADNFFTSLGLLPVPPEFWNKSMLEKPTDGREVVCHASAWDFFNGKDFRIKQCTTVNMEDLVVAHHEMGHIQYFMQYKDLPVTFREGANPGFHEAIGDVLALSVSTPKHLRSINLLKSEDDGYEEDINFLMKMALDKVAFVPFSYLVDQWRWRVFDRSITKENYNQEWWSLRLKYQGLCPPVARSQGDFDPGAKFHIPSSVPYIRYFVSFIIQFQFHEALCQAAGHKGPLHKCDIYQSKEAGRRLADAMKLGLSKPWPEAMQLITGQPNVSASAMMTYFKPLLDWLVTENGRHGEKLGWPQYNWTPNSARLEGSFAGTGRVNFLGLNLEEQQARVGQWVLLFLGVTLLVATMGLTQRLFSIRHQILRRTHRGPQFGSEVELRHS
# Protocol: These peptides were investigated for their inhibitory effect using an in vitro-ACE-inhibitor-assay with an angiotensin-converting-enzyme derived from pig kidney. Hippuryl-histidyl-leucin was used as a substrate.
# The assay was performed in 96 well HTRF-plates (Packard). The concentrations used for each well were: 1 mU ACE from pig kidney (EC 3.4.15.1 (Sigma)) in 30 μl of assay buffer (25 mM HEPES; 0,3 M NaCl, pH 8.2) and 20 μl inhibitor dissolved in assay buffer (0.35-200 μM). The reaction was started by adding 50 μl of 2 mM hippuryl-histidyl-leucin (Sigma) in assay buffer. The reaction was performed at room temperature (22° C.) for 30 minutes and terminated by adding 50 μl 1 M NaOH. Afterwards 50 μl of 0.5% ortho-phtalaldehyd (Sigma) in methanol were added, 5 minutes later followed by 50 μl of 2.5 M HCl-solution to stabilize the developed fluorescence product.
# The results were used to calculate the % inhibition. The IC50-values were determined graphically from a curve showing the dose-reaction ratio.
# In order to minimize errors due to time-dependent differences, all pipetting steps were performed in a precise time schedule.
# [2] = tested on: normotensive Wister rats; experiment: bradykinin-potentiating effect: blood pressure measurement in anaesthetized normotensive rats; format: in vivo, rat
# Protocol: These experiments were conducted with normotensive rats and the short-time decrease of blood pressure induced by bradykinin (and caused by vasodilatation) was measured. […] Furthermore, S545 (also corresponds to proANP48-57) was also tested in vivo at hypertensive rats (FIG. 7).
# In the in vivo experiments with normotensive rats the animals were previously anaesthetized and after blood pressure stabilization treated with a constant amount of bradykinin. Subsequently, either Captopril or human BPP were administered, again followed by a constant amount of bradykinin. Afterwards the maximal blood pressure drop was determined and, on the basis of bradykinin as a factor 1, the potentiating factor was determined. In the same way, the systolic and diastolic blood pressure, the percentage middle pressure decrease and the time required to come back to the baseline values were measured (see tables 4a to 4j). A detailed experimental description is given below.
# The trials were conducted on female anaesthetized normotensive Wister rats with weight ranging from 210 to 240 g.
# The peptide pANP48-57 used for the in vivo assays was synthesized by Biosynthan (Berlin) with a HPLC-determined purity of 98%. […]
# The middle pressure was determined from the measured diastolic (pd) and systolic (ps) blood pressure by using the following formula: pm=(ps−pd)×0.42+pd.
compound,measurement,setting,value
CC(C)C[C@H](NC(=O)[C@H](C)N)C(=O)N[C@@H](CO)C(=O)N1CCC[C@H]1C(=O)N[C@@H](CC(C)C)C(=O)N1CCC[C@H]1C(=O)N[C@@H](CCC(=O)O)C(=O)N[C@H](C(=O)N1CCC[C@H]1C(=O)N1CCC[C@H]1C(=O)O)C(C)C [Peptide S545],dose necessary in the ACE-assay to reach the same effect as with Captopril,[1],1000 fold
same,molecular concentration required for the bradykinin-potentiating effect in vivo in comparison to Captopril,"[2]; in vivo, relative to Captopril",10 fold
same,bradykinin-potentiating effect (short-time decrease of blood pressure induced by bradykinin),"[2]; normotensive rats, anaesthetized, i.v.",concentration dependent bradykinin-potentiating
